In patent publication US20060079453A1, “Hla binding peptides and their uses” (priority 2002, published 2006):
No end group written: not given here.

Columns and labels:
Test in all cases: biochemical
Type in all cases: binding
HLA-DR DRB1*0802 (DR8) = HLA-DR DRB1*0802 (DR8) (Homo sapiens, UniProt P01903+P01911, A100R/A103L/A169T/F76Y/H45Y/I96F/K41T/L162R/M171V/P40S/Q125H/Q178H/Q39Y/Q99D/R218S/R42G/S66Y/V115G/W38E)
HLA-DR DRB1*0401 (DR4) = HLA-DR DRB1*0401 (DR4) (Homo sapiens, UniProt P01903+P01911, A100K/A169T/F76Y/I96L/K127E/L162R/M171V/N62H/P40V/Q125Y/R42H/S133A/S149N/S66Y/V115G/V209L/W38E); settings: DRB1 *0401
HLA-DR DRB1*1101 (DR11) = HLA-DR DRB1*1101 (DR11) (Homo sapiens, UniProt P01903+P01911, A100R/A169T/A87E/I96F/K41T/L162R/M171V/P40S/Q125H/Q178H/Q39Y/Q99D/R42S/S66Y/T262R/V115G/W38E); settings: DRB1 *1101
HLA-DR DRB1*0701 (DR7) = HLA-DR DRB1*0701 (DR7) (Homo sapiens, UniProt P01903+P01911, A100R/A102G/A103Q/D57E/D86V/E43K/F76Y/K127E/L162R/M171V/P40G/Q125H/Q99D/R33Q/R42Y/R54Q/S133A/S66F/T210M/V115G/Y107V/Y59L/Y89S); settings: DRB1 *0701
HLA-DR DRB1*0301 (DR3) = HLA-DR DRB1*0301 (DR3) (Homo sapiens, UniProt P01903+P01911, A100K/A102G/A103R/A169T/F55Y/I96L/K41T/L162R/M171V/P40S/Q125H/Q178H/Q39Y/R42S/S66N/T106N/T262R/W38E/Y61H)
HLA-DR DRB1*1501 (DR15) = HLA-DR DRB1*1501 (DR15) (Homo sapiens, UniProt P01903+P01911); settings: DRBI *1501
HLA-DR DRB1*0405 (DR4) = HLA-DR DRB1*0405 (DR4) (Homo sapiens, UniProt P01903+P01911, A100R/A169T/D86S/F76Y/I96L/K127E/L162R/M171V/N62H/P40V/Q125Y/R42H/S133A/S149N/S66Y/V115G/V209L/W38E); settings: DRB1 *0405
HLA-DR DRB1*1302 (DR13) = HLA-DR DRB1*1302 (DR13) (Homo sapiens, UniProt P01903+P01911, A100E/A169T/K41T/L162R/M171V/P40S/Q125H/Q178H/Q39Y/Q99D/R42S/S66N/T262R/V115G/W38E/Y61H); settings: DRBI *1302
HLA-DR DRB3*0101 (DR52) = HLA-DR DRB3*0101 (DR52) (Homo sapiens, UniProt P01903+P79483)
HLA-DR DRB4*0101 (DR53) = HLA-DR DRB4*0101 (DR53) (Homo sapiens, UniProt P01903+P13762, G164S); settings: DRB4 *0101
HLA-DR DRB1*0101 (DR1) = HLA-DR DRB1*0101 (DR1) (Homo sapiens, UniProt P01903+P01911, A100R/D57E/F55L/F60I/F76Y/I96L/L162R/M171V/P40L/Q125E/R42F/V115G/Y59C); settings: DRB1 *0101
HLA-DR DRB1*0901 (DR9) = HLA-DR DRB1*0901 (DR9) (Homo sapiens, UniProt P01903+P01911, A100R/A103E/D57H/D86V/F55Y/F60I/F76Y/I96F/K127E/L162R/M171V/P40D/Q125H/Q99R/R33Q/R42F/S133A/S66N/T210M/V115G/W38K/Y107V/Y59G/Y89S); settings: DRB1 *0901
HLA-DR DRB5*0101 (DR51) = HLA-DR DRB5*0101 (DR51) (Homo sapiens, UniProt P01903+Q30154); settings: DRB5 *0101

HLA-DR DRB1*1302 (DR13), sequence (P01903 26-254 limits assumed, other chains not shown): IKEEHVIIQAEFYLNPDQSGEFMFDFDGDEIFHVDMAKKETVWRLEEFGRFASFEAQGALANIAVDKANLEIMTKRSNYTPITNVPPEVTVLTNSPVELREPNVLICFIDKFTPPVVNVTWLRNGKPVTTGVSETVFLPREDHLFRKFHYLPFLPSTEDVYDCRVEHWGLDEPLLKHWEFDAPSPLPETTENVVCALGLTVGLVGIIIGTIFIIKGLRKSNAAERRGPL
HLA-DR DRB1*1101 (DR11), sequence (P01903 26-254 limits assumed, other chains not shown): as above
HLA-DR DRB1*0301 (DR3), sequence (P01903 26-254 limits assumed, other chains not shown): as above

SFLQNPQTSLTFSES
IC50 (HLA-DR DRB1*0802 (DR8)): > 33.3 µM | IC50 (HLA-DR DRB1*0401 (DR4)): 7.78 µM | IC50 (HLA-DR DRB1*1101 (DR11)): > 15.4 µM | IC50 (HLA-DR DRB1*0701 (DR7)): 6.2 µM | IC50 (HLA-DR DRB1*0301 (DR3)): 2.39 µM | IC50 (HLA-DR DRB1*1501 (DR15)): 1.51 µM | IC50 (HLA-DR DRB1*0405 (DR4)): 9.56 µM | IC50 (HLA-DR DRB1*1302 (DR13)): 0.121 µM | IC50 (HLA-DR DRB3*0101 (DR52)): 0.864 µM

FVNQHLCGSDLVEAL [FVNQHLCGSDLVEAL]
IC50 (HLA-DR DRB1*0802 (DR8)): > 54.4 µM | IC50 (HLA-DR DRB1*0401 (DR4)): 19.2 µM | IC50 (HLA-DR DRB1*1101 (DR11)): > 1110 µM | IC50 (HLA-DR DRB1*0301 (DR3)): > 74.8 µM | IC50 (HLA-DR DRB4*0101 (DR53)): 24.5 µM | IC50 (HLA-DR DRB1*0101 (DR1)): 0.117 µM | IC50 (HLA-DR DRB1*0901 (DR9)): > 63 µM | IC50 (HLA-DR DRB5*0101 (DR51)): > 43.3 µM | IC50 (HLA-DR DRB1*0405 (DR4)): 14.9 µM | IC50 (HLA-DR DRB1*1302 (DR13)): 20.2 µM | IC50 (HLA-DR DRB3*0101 (DR52)): 10 µM

YLVTGERGFFYTDKT
IC50 (HLA-DR DRB1*0802 (DR8)): > 25.8 µM | IC50 (HLA-DR DRB1*0401 (DR4)): > 20.5 µM | IC50 (HLA-DR DRB1*1101 (DR11)): 16.8 µM | IC50 (HLA-DR DRB4*0101 (DR53)): 30.8 µM | IC50 (HLA-DR DRB1*1501 (DR15)): > 25.6 µM | IC50 (HLA-DR DRB1*0101 (DR1)): 3.26 µM | IC50 (HLA-DR DRB1*0901 (DR9)): 2.91 µM | IC50 (HLA-DR DRB5*0101 (DR51)): > 28.4 µM | IC50 (HLA-DR DRB1*0405 (DR4)): > 30.1 µM | IC50 (HLA-DR DRB1*1302 (DR13)): 17.4 µM | IC50 (HLA-DR DRB3*0101 (DR52)): 0.359 µM

LGFLQRSSNCQSQKL
IC50 (HLA-DR DRB1*0802 (DR8)): 0.405 µM | IC50 (HLA-DR DRB1*0401 (DR4)): 0.0081 µM | IC50 (HLA-DR DRB1*1101 (DR11)): 0.604 µM | IC50 (HLA-DR DRB1*0701 (DR7)): 0.305 µM | IC50 (HLA-DR DRB1*0301 (DR3)): 4.89 µM | IC50 (HLA-DR DRB4*0101 (DR53)): 0.124 µM | IC50 (HLA-DR DRB5*0101 (DR51)): 0.508 µM | IC50 (HLA-DR DRB1*0405 (DR4)): 0.228 µM | IC50 (HLA-DR DRB1*1302 (DR13)): 0.131 µM | IC50 (HLA-DR DRB3*0101 (DR52)): > 1750 µM

VEALYLVCGERGFFY
IC50 (HLA-DR DRB1*0802 (DR8)): 24.6 µM | IC50 (HLA-DR DRB1*0401 (DR4)): 0.209 µM | IC50 (HLA-DR DRB1*1101 (DR11)): 3.56 µM | IC50 (HLA-DR DRB1*0701 (DR7)): 3.87 µM | IC50 (HLA-DR DRB1*0301 (DR3)): 17.6 µM | IC50 (HLA-DR DRB4*0101 (DR53)): 0.03 µM | IC50 (HLA-DR DRB1*0101 (DR1)): 0.076 µM | IC50 (HLA-DR DRB1*0901 (DR9)): 2.23 µM | IC50 (HLA-DR DRB5*0101 (DR51)): 25.5 µM | IC50 (HLA-DR DRB1*0405 (DR4)): 1.04 µM | IC50 (HLA-DR DRB1*1302 (DR13)): 4.4 µM | IC50 (HLA-DR DRB3*0101 (DR52)): 4.44 µM

SWLEPVQFLRSVFAN
IC50 (HLA-DR DRB1*0802 (DR8)): 3.42 µM | IC50 (HLA-DR DRB1*0701 (DR7)): 0.589 µM | IC50 (HLA-DR DRB1*0301 (DR3)): 167 µM | IC50 (HLA-DR DRB1*0101 (DR1)): 0.011 µM | IC50 (HLA-DR DRB1*0901 (DR9)): 4 µM | IC50 (HLA-DR DRB5*0101 (DR51)): 4.81 µM | IC50 (HLA-DR DRB1*0405 (DR4)): 0.883 µM | IC50 (HLA-DR DRB1*1302 (DR13)): 4.32 µM | IC50 (HLA-DR DRB3*0101 (DR52)): > 270 µM
